We go through two molecules from patent US20250059139A1, “COMPOUNDS FOR TREATMENT OF CANCER” (THE JOHNS HOPKINS UNIVERSITY, priority 2021, published 2025).

pIC50: −log10 of the molar value.

For data set [1], the system named is HIF-1α protein in tumors. As to conditions: daily oral 10 mg/kg/d; cited from earlier work.
Data set [2] addresses T1, nuclear MEF2/HDAC4/NCoR1 formation in CWR-22Rv1 cells (Homo sapiens, UniProt P56524).
T1 construct: endogenous in cells; host or cells: CWR-22Rv1 cells, nuclear extracts, 1% O2
The data set can be described thus: Nuclear NCoR1 immunoprecipitated with MEF-2 antibody in CWR-22Rv1 cells under hypoxia. It is filed as cell-based. Particulars: 1% O2, read-out: IC50 for inhibiting hypoxia-induced nuclear MEF2/HDAC4/NCoR1 formation (MEF-2 and NCoR1 IP). The source says:
While HIF-1α is required for the upregulation of hypoxia survival genes, it is not required for the hypoxia-induced widespread transcriptional repression, which is also needed for enhanced survival in the compromised TME (Denko et al. Nat Rev Cancer 8, 705-713 (2008)). MEF-2 is also a HDAC4 client (McKinsey et al. Trends Biochem Sci 27, 40-47 (2002)). MEF-2 dimers bind to target gene promoters, forming a hydrophobic groove composed of AA 1-78 of each monomer to which HDAC4 binds via its amphipathic helix at AA 168-184 (Han et al. J Mol Biol 345, 91-102 (2005)). When MEF-2 binds, HDAC4 forms a NCoR1/HDAC3 complex, which deacetylates MEF2 and histones within its proximity; thereby, repressing expression of its target genes (McKinsey 2002). When CWR-22Rv1 cells are switched from a 21% to a 1% 02 environment in vitro, there is a 3-fold increase in NCoR1 immunoprecipitated with MEF-2 from nuclear extracts (FIG. 36). Co-treatment with TasQ inhibits this hypoxia-induced increase in nuclear MEF2/HDAC4/NCoR1 formation with an IC50 of 5 μM (FIG. 36). These in vitro results are consistent with gene expression analysis of CWR22-RH PDX tissue from castrate hosts in vivo, which document that daily oral TasQ (10 mg/kg/d) inhibits the binding of NCoR1, and thus HDAC3 to the MEF-2/HDAC4 complex, relieving repression of MEF-2 target genes needed for survival under hypoxic conditions (Table 1B).

Data set [3] relates to CWR22-RH PDXs. The experiment in a line: RNA sequencing of in vivo growing CWR22-RH PDXs in castrate hosts. More on the design: species or system human. As to conditions: TasQ 10 mg/kg/d orally vs. vehicle control. On the procedure: RNA Sequencing Analysis of In vivo Growing Xenografts. This was performed as described previously (Brennen 2021; Zhu 2020) with read counts normalized per kilo base-pair gene length and per million reads library size (RPKM).
RNAseq analysis was performed on CWR22-RH PDX tissue growing in the compromised hypoxic TME of castrated hosts with or without daily oral TasQ (10 mg/kg/d). Such dosing produces optimal CWR22-RH growth inhibition (FIG. 1) consistent with downregulation of the expression of proliferation-associated target genes in addition to the AR and its target genes (Table 1A). In addition, such daily TasQ treatment lowers HIF-1α protein in tumors by >50% (Olsson 2010) suppressing HIF1-dependent cell survival target genes (Table 1B). […] As predicted at this drug level, elevated expression of AHR and a series of its target genes is observed (Table 1C).

Data set [4] deals with thymus. The data set can be described thus: AHR agonist induced thymus regression in FVB male mice. Particulars: mouse, in vivo, po, 30 mg/kg/day. It is filed as in vivo, mouse. The method, then: To evaluate AHR agonist induced thymus regression, groups of five 4-week old FVB male mice from Jackson Laboratory were treated with either vehicle, Linomide, TasQ, or its analogs daily by orally gavage for 2 weeks and then the thymus removed and weighted.
Oral Drug treatment. TasQ at the indicated dose was initially dissolved with equal molar 1 N sodium hydroxide. This solution was diluted with sterile water and the mixture stirred for 1 hr. The pH was then adjusted with 1 N HCl to 8.9 and 200 μL given daily via oral gavage.
This means that in the clinical setting, dose-escalation above 1 mg/d of TasQ as needed to reach this >2 μM blood level for optimal anti-cancer efficacy will also enhance unwanted off-target AHR induction. Therefore, a medicinal chemical approach was undertaken to identify third generation quinoline-3-carboxamide analogs with increased HDAC4 inhibition, but with reduced AHR agonism. The approach taken is based upon the earlier SPR analysis documenting that TasQ linked to the surface chip via its aniline-N is a potent binder of HDAC4. Thus, a series of quinoline-3-carboxamide analogs were synthesized focusing upon adduct changes at the aniline-N. These analogs were synthesized as described in Example 1, and were initially screened for their AHR agonist activity using the in vitro human cell-based ARE-driven luciferase reporter gene assay (Table 3).

T1 sequence (P56524 whole entry): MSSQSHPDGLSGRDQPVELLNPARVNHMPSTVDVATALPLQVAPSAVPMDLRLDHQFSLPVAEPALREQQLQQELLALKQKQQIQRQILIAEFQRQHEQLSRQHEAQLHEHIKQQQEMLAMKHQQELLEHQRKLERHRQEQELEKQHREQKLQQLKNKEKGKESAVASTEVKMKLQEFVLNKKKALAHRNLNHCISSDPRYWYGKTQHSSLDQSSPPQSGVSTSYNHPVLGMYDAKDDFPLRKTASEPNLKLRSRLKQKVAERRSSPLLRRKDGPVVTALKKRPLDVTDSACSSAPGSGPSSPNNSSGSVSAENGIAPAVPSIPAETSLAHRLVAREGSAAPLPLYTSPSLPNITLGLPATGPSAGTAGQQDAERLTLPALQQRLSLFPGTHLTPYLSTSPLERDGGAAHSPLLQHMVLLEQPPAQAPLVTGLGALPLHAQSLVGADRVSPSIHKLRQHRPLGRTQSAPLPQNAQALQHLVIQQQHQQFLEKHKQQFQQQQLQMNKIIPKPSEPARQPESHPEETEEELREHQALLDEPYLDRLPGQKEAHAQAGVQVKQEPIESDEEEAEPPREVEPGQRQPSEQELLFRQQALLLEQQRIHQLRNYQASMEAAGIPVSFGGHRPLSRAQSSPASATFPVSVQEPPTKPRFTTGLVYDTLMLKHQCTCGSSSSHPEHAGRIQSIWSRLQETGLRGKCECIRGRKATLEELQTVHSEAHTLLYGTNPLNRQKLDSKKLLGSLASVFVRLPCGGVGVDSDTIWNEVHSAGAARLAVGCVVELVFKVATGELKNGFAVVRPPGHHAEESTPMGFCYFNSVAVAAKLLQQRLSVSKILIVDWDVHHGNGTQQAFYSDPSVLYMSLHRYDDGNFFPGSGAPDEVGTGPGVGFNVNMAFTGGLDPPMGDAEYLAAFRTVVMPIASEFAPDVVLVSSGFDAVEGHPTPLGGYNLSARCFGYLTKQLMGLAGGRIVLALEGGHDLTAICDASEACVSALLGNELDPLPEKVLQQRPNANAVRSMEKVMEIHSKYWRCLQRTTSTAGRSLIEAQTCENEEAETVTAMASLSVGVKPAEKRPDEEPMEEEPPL

Turning to `COc1cccc2c1c(O)c(C(=O)N(C)c1ccc(C(F)(F)F)cc1)c(=O)n2C` [TasQ, Tasquinimod], the “lowering of HIF-1α protein in tumors” value in data set [1] is reported as > 50%. The pIC50 in data set [2] was 5.30. For the same molecule, in data set [3], the “AGR2, AHR Target Genes (Fold Increases by TasQ)” value is on record as 5.5 fold; the “AHR, AHR Target Genes (Fold Increases by TasQ)” value is reported as 3.0 fold; the “ALDOC, HIF-1α Target Genes (Fold Decrease by TasQ)” value is −1.4 fold; the “AR, AR Target Genes (Fold Decrease by TasQ)” value is reported as −2.0 fold. Also, in data set [3], the “BHLHE41, MEF-2 Target Genes (Fold Increase by TasQ)” value was found to be 2.9 fold; the “BNIP3, HIF-1α Target Genes (Fold Decrease by TasQ)” value is reported as −1.9 fold; the “CA12, MEF-2 Target Genes (Fold Increase by TasQ)” value was 2.7 fold; the “CAPN2, MEF-2 Target Genes (Fold Increase by TasQ)” value was found to be 1.6 fold. Moreover, in data set [3], the “CDC6, Proliferation Target Genes (Fold Decrease by TasQ)” value is listed as −1.5 fold; the “CDT1, Proliferation Target Genes (Fold Decrease by TasQ)” value is −2.2 fold; the “CEACAM1, MEF-2 Target Genes (Fold Increase by TasQ)” value is listed as 1.8 fold; the “CYP1B1, AHR Target Genes (Fold Increases by TasQ)” value amounted to 10.0 fold. In addition, in data set [3], the “DTYMK, Proliferation Target Genes (Fold Decrease by TasQ)” value is −1.6 fold; the “E2F1, Proliferation Target Genes (Fold Decrease by TasQ)” value is listed as −2.0 fold; the “EDN1, MEF-2 Target Genes (Fold Increase by TasQ)” value is recorded as 15.0 fold; the “GDF15, AHR Target Genes (Fold Increases by TasQ)” value worked out at 2.3 fold. Moreover, in data set [3], the “HILPDA, HIF-1α Target Genes (Fold Decrease by TasQ)” value is −1.7 fold; the “IGF1, HIF-1α Target Genes (Fold Decrease by TasQ)” value is −11.0 fold; the “IGFBP2, HIF-1α Target Genes (Fold Decrease by TasQ)” value is −1.8 fold; the “IGFBP5, HIF-1α Target Genes (Fold Decrease by TasQ)” value was −18.0 fold. Moreover, in data set [3], the “KLKP1, AR Target Genes (Fold Decrease by TasQ)” value is recorded as −2.3 fold; the “LDHA, HIF-1α Target Genes (Fold Decrease by TasQ)” value is reported as −1.5 fold; the “LOX, HIF-1α Target Genes (Fold Decrease by TasQ)” value was −4.0 fold; the “MCM2, Proliferation Target Genes (Fold Decrease by TasQ)” value is listed as −1.9 fold. Moreover, in data set [3], the “MCM3, Proliferation Target Genes (Fold Decrease by TasQ)” value is recorded as −1.6 fold; the “MCM5, Proliferation Target Genes (Fold Decrease by TasQ)” value is listed as −2.0 fold; the “MKI67, Proliferation Target Genes (Fold Decrease by TasQ)” value is reported as −1.7 fold; the “NKX3.1, AR Target Genes (Fold Decrease by TasQ)” value was −2.3 fold. Also, in data set [3], the “NQO1, AHR Target Genes (Fold Increases by TasQ)” value amounted to 2.9 fold; the “NR4A1, MEF-2 Target Genes (Fold Increase by TasQ)” value was 1.4 fold; the “NR4A2, MEF-2 Target Genes (Fold Increase by TasQ)” value is 1.8 fold; the “P4HA1, HIF-1α Target Genes (Fold Decrease by TasQ)” value is on record as −1.8 fold. Besides, in data set [3], the “PDK1, HIF-1α Target Genes (Fold Decrease by TasQ)” value is recorded as −1.7 fold; the “PTN, HIF-1α Target Genes (Fold Decrease by TasQ)” value is −6.1 fold; the “S100P, MEF-2 Target Genes (Fold Increase by TasQ)” value was 5.7 fold; the “SLC45A3, AR Target Genes (Fold Decrease by TasQ)” value is given as −3.7 fold. In data set [3], the “THB5, MEF-2 Target Genes (Fold Increase by TasQ)” value worked out at 8.0 fold; the “TIPARP, AHR Target Genes (Fold Increases by TasQ)” value is recorded as 3.4 fold; the “TMPRSS2, AR Target Genes (Fold Decrease by TasQ)” value is reported as −1.9 fold; the “TNC, HIF-1α Target Genes (Fold Decrease by TasQ)” value is reported as −2.5 fold. In data set [3], the “TTR, HIF-1α Target Genes (Fold Decrease by TasQ)” value is on record as −3.8 fold and the “VEGFB, HIF-1α Target Genes (Fold Decrease by TasQ)” value was −1.5 fold.

Turning to `COc1cccc2c1c(O)c(C(=O)N(c1ccc(C(F)(F)F)cc1)C1CCCCC1)c(=O)n2C` [ESATA-20], the “induction of thymus regression” value in data set [4] was “lack of induction”. The pIC50 in data set [2] was > 6.00.
